# Data from patent publication US12564609B2, “Hematopoietic stem cell engraftment with a combination of agents” (The Board of Trustees of the Leland Stanford Junior …, priority 2020, dated 2026).
# System: LT-HSC, ST-HSC, MPP
# Assay: Ki67 expression and HSPC depletion after AZA (dose titration)
# Type: in vivo, C57BL/6 mice
# Procedure: A. Schematic of treatment protocol. […] 24 h after last AZA injection BM was analyzed for HSC-depletion and Ki67 intracellular protein expression. B. […] C. Mean fluorescence intensity (MFI) of Ki67 intracellular protein expression in LT-HSC, ST-HSC, MPP2, MPP3/4 and myeloid progenitors (MP). Data were pooled from 2 independent experiments and represent mean±SD (n=7). Statistics were calculated Mann-Whitney test (*P<0.05; **P<0.01; ***P<0.001). D. Schematic of in vitro culture protocol. Mouse Lin^−Sca1+c-Kit^+CD48^− or human Lin^−CD34^+CD38^− were FACS-sorted and plated in 96-well flat bottom plate, coated with fibronectin and containing 100 μl of HSC media/well, supplemented with 10 ng/ml SCF and 100 ng/ml TPO. Different concentrations of AZA (0.1, 0.5 and 1 μg/ml) were added on two consecutive days (at baseline and 24 h after cell culturing) and cell counting, and cell imaging was performed every 6 h for total of 48 h on ImagExpress Pico automated cell counting system. After 48 h % live/dead cells was assessed by using EarlyTox Live/Dead Assay Kit. E. Proliferation curves of FACS-sorted mouse Lin^−Sca1^+c-Kit^+CD48^− in the presence of indicated concentrations of AZA (left) and cell viability as assessed by % of Calcein AM positive cells after 48 h of cell culture (right). Data represent mean±SD from 3 independent experiments. Statistics were calculated with Mann-Whitney test (*P<0.05; **P<0.01; ***P<0.001). F. Proliferation curves of FACS-sorted human Lin^−CD34^+CD38^− cells in the presence of indicated concentrations of AZA (left) and cell viability as assessed by % of Calcein AM positive cells after 48 h of cell culture (right). Data represent mean±SD from 2 independent experiments. Statistics were calculated with Mann-Whitney test (**P<0.01; ***P<0.001).
# Analysis was performed 24 h after last AZA administration. Gated from lineage negative (Lin^−) live cells. Lin^−Sca1^+c-Kit^++ cells (LSK), long-term hematopoietic stem cells (LT-HSC). […] Data were pooled from 2 independent experiments and represent mean±SD (n=7). Statistics were calculated Mann-Whitney test (**P<0.01; ***P<0.001).
# In vivo administration of therapeutic agents and cytokines. Anti-mouse CD117 mAbs, clone ACK2 (BioXcell) and 2B8 (BioXcell), were injected retroorbital as a single dose of 500 μg following intraperitoneal administration of Diphenhydramine (Benadryl). Anti CD4 (clone GK1.5, BioXcell) and anti-CD8 (clone YTS169.4, BioXcell) were administered intraperitoneally at a dose of 100 μg in 100 μl phosphate-buffered saline (PBS). 5-Azacytidine (AZA) ([…] Technologies), was reconstituted in PBS to a concentration of 5 mg/ml and kept at −20° for up to 1 month. Before each injection, AZA was thawed for 10-15 min at room temperature (RT), resuspended in PBS and administered intraperitoneally in 100 μl. […]
smiles,measurement,setting,value
"Nc1ncn([C@@H]2O[C@H](CO)[C@@H](O)[C@H]2O)c(=O)n1 [AZA, 5-Azacytidine]",level of HSPC (LSK) and LT-HSC after depletion,"AZA 1.25 mg/kg/d for 3 days, 24 h after last dose",−25 % of baseline
same,normalization of Ki67 in HSC and MPP,AZA 5 mg/kg/d for 5 days,≤ 10 days
same,Ki67 in HSC and MPP,"AZA 5 mg/kg/d for 5 days, day 6",significant increase of Ki67
same,"Ki67 protein expression in HSC, MPP and MP compartments","AZA 1.25, 2.5 and 5 mg/kg/d for 3 days (all three dose regimens)",significant increase in Ki67 protein expression
